Test results taken from patent US20070099839A1, “Inhibitors of cell migration” (CIT CANCER TARGETING TECHNOLOGIES, priority 2001, published 2007).
No end group written: not given here.

Tests used:
PMNs [1] = assay: PMN adhesion to immobilized proMMP-9 (phosphatase assay); assay type: cell-based, human; settings: PMA-stimulated PMNs; peptide 50 μM, antibody 20 μg/ml; FIG. 5C
Experimental: FIG. 5A to 5D. Recognition of recombinant MMP-9 domains by αMβ2 integrin-expressing cells. The studied cells were PMNs (5A, 5B, 5C), αMβ2 L-cell transfectants (5D), non-transfectants (5D), and LAD-1 cells (5D). PMNs were in resting state or stimulated with PMA (5A, 5C) or C5a or TNFα (5B) before the binding experiment to proMMP-9 or its domains. Cells were also pretreated with each peptide (50 μM), antibody (20 μg/ml) or the αM I domain as indicated. Unbound cells were removed by washing and the number of adherent cells was quantitated by a phosphatase assay. The experiment was repeated three times with similar results.
MMP-9 proteins (200 nM in PBS) were coated at +4° C. for 16 h and the microtiter wells were blocked with 3% BSA in PBS for 1 h at room temperature. The αMβ2-integrin L-cell transfectants and PMNs (1×10^5 cells/well) were suspended in RPMI medium supplemented with 2 mM MgCl2 and 0.1% BSA and activated with PMA (20 nM) for 20 min, or with C5a (50 nM) or TNF-α (10 nM) for 4 h at +37° C. The L926 wild type and LAD-1 cells were used as controls. The cells were treated with the indicated antibody (20 μg/ml) or peptide (50 μM) at +37° C. for 30 min, washed twice with serum-free medium and incubated in the microtiter wells at +37° C. for 30 min. The wells were washed with PBS, and the number of adherent cells was quantitated by a phosphatase assay (25).

PMNs [2] = assay: PMN transwell migration on LLG-C4-GST coated filters; assay type: cell-based, human; settings: LLG-C4-GST substratum; peptides 200 μM, antibodies 20 μg/ml; 20 nM PMA; FIG. 6A
Experimental: (§1) FIG. 6A to 6D. Blockage of PMN and THP-1 cell migration in vitro by gelatinase and β2 integrin inhibitors. PMNs (1×10^5 in 100 μl) were applied on the LLG-C4-GST or GST coated surface (6A) or HMEC monolayer (6B) in the absence or presence of peptides (200 μM) or antibodies (20 μg/ml) as indicated. PMNs were stimulated with 20 nM PMA (6A), HMECs with […] or 10 ng/ml TNFα or left untreated (6B). THP-1 cells (5×10^4 in 100 μl) were stimulated with 50 nM PMA and applied on the coated surfaces together with each peptide (200 μM) (6C). The cells migrated through transwell filters were stained and counted microscopically. All experiments were repeated at least twice. (6D) Phorbol ester-activated THP-1 cells (5×10^4 in 100 μl) were incubated for 16 h at +37° C. in the presence or absence of peptides as indicated. The conditioned medium was analyzed by gelatin zymography.
(§2) Cell migration was conducted using Costar 24-transwell migration chambers with a 3 μm pore size for PMNs and 8 μm for THP-1 cells. To study β2 integrin-directed migration, the chamber membrane was coated on both sides with LLG-C4-GST integrin ligand (40 μg/ml) or GST as a control and blocked with 10% serum-containing medium (16). […] The non-migrated cells were removed from the upper surface by a cotton swab and the cells that had traversed the filters were stained with crystal violet and counted.

PMNs [3] = assay: PMN transendothelial migration through HMEC monolayer; assay type: cell-based, human; settings: chemotaxis with C5a or TNF-α, peptides 200 μM, antibodies 20 μg/ml, FIG. 6B
Experimental: as §1, §2

THP-1 cells [4] = assay: THP-1 cell migration through LLG-C4-GST coated transwell filters; assay type: cell-based, human; settings: LLG-C4GST coated filters; 50 nM PMA; peptides 200 μM; 16 h; FIG. 6C
Experimental: as §1, §2

MMP-9 catalytic domain = assay: Binding to the MMP-9 catalytic domain (unpublished results)
αM I domain = biological target: T1, αM I domain (Homo sapiens, UniProt P11215); assay: Binding of proMMP-9 to immobilized GST-αM I domain in the presence of competitor peptides (detected with GE-213 antibody); settings: FIG. 4C
T1 construct: GST-αM and GST-αL I domain fusion proteins were expressed and purified as described previously (30); made in house
Experimental: (4C) Binding of proMMP-9 to the immobilized GST-αM I domain was studied in the presence of each peptide at the concentrations indicated. The binding was determined with the anti-MMP-9 antibody GE-213.
(§3) ICAM-1, fibrinogen, proMMP-8, proMMP-9 or the recombinant domains (0.5 μg/well in PBS) were coated on plastic 96-well plates at +4° C. for 16 h and the wells were blocked with 3% bovine serum albumin (BSA) in PBS for 2 h at room temperature. Binding of the GST-αM I domain was determined essentially as described in the first priority application. In the reverse assay, GST-αM I domain was coated and binding of proMMP-9 was determined using the GE-213 antibody. Competitor peptides were preincubated with the αM I-domain for 20 minutes before the experiment.

[5] = test system: intraperitoneal accumulation of PMNs; assay: Mouse model of thioglycolate-induced peritonitis; assay type: in vivo; settings: for inhibition of intraperitoneal accumulation of PMNs: intravenous tail injection, 3 h after thioglycolate, FIG. 7A; for prevention of thioglycolate-induced increase in gelatinase levels in intraperitoneal fluid (zymography): DDGW 0.1, HFDDDE 0.2, DFEDHD 0.2 mg per mouse intravenously, FIG. 7D
Experimental: (7A) Mice were injected with thioglycolate or PBS intraperitoneally. The peptides were applied intravenuously at the amounts indicated (A). After 3 h, the intraperitoneal leukocytes were harvested and counted. […] (*) indicates statistical significant difference (p<0.001). The experiment was repeated at least 3 times. The infiltrated neutrophils of mice treated with thioglycolate (7B) or PBS (7C) were stained with anti-MMP-9 and anti-αM, as described in the FIG. 3 legend. Fluorescence was studied by confocal microscopy. Bars: 9.1 μm and […], respectively.
(7D) Gelatinolytic activity of the supernatants from the peritoneal cavities of mice collected as in (7A). Lanes 1-4: samples are from thioglycolate-treated mice; lane 5: a sample from PBS-treated mouse. DDGW, HFDDDE, and DFEDHD were injected intravenously at doses of 0.1, 0.2 and 0.2 mg per mouse. The arrows show proMMP-9 dimer, proMMP-9 and proMMP-2. The experiment was repeated three times with similar results.
Balb/c mice at the age of 31-32 weeks were injected intraperitoneally with 3% (w/v) thioglycolate in sterile saline (32). Peptides ([…] in 100 μl) were introduced intravenously through the tail vein. Animals were euthanized after 3 h and the peritoneal cells were harvested by injecting 10 ml of sterile PBS through the peritoneal wall. Red blood cells present in the lavage fluid were removed by hypotonic lysis. Cells were centrifuged and resuspended in 1 ml of sterile 0.25% BSA/Krebs-Ringer. The supernatants were also collected and analysed by gelatin zymography. The number of neutrophils was determined following staining with 0.1% crystal violet and using a light microscope equipped with a ×100 objective. For immunofluorescence staining, cells were allowed to bind to poly-L-lysine coated cover slips, fixed with 2.5% paraformaldehyde in PBS at +4° C. for 30 min followed by several washings. The Fc receptors were blocked in the presence of 20% of rabbit serum and 3% BSA in PBS. The cells were then incubated with anti-MMP-9 polyclonal and αM monoclonal (MCA74) antibodies for 30 min. After washing with PBS, the secondary antibodies, rhodamine (TRITC)-conjugated anti-rabbit or FITC-conjugated anti-rat (Fab′)2 were incubated for another 30 min. The samples were examined with a confocal microscope. The animal studies were approved by an ethical committee of Helsinki University.

proMMP-8 (Homo sapiens) = biological target: T2, proMMP-8 (Homo sapiens); assay: Binding of GST-αM I domain to immobilised proMMP-8 with competitors; settings: competitors 50 μM; FIG. 4D
T2 construct: GST-αM and GST-αL I domain fusion proteins were expressed and purified as described previously (30); made in house
Experimental: (§4) (4D) Binding of GST-αM I domain to the immobilised proMMP-8, proMMP-9, ICAM-1, and fibrinogen was studied with ICAM-1, DDGW or KKGW (50 μM) as competitors. In control wells, GST was added instead of GST-αM I domain. The experiment was repeated three times with similar results.
as §3

proMMP-9 (Homo sapiens) = biological target: T3, proMMP-9 (Homo sapiens); assay: Binding of GST-αM I domain to immobilised proMMP-9 with competitors; settings: competitors 50 μM; FIG. 4D
T3 construct: GST-αM and GST-αL I domain fusion proteins were expressed and purified as described previously (30); made in house
Experimental: as §4, §3

[6] = test system: leukocyte primary adhesion to ICAM-1, fibrinogen or LLG-C4GST; assay: Leukocyte primary adhesion to ICAM-1, fibrinogen or LLG-C4GST; assay type: cell-based
THP-1 cells [7] = settings: FI 2003 0923; cited from earlier work
THP-1 cells [8] = assay: Effect of peptides on gelatinase release from THP-1 cells (gelatin zymography); assay type: cell-based, human; settings: phorbol ester-activated cells; peptides 200 μM; 16 h; FIG. 6D
Experimental: as §1
THP-1 cells (50 000/100 μl) were incubated in serum-free RPMI for 16 h in the presence or absence of peptides (200 μM) as described in the text The supernatants from THP-1 cells and mouse intraperitoneal fluid were analysed by gelatin zymography. Gelatinolytic activity was quantified by densitometric scanning.

T1 sequence (P11215 150-328 limits assumed): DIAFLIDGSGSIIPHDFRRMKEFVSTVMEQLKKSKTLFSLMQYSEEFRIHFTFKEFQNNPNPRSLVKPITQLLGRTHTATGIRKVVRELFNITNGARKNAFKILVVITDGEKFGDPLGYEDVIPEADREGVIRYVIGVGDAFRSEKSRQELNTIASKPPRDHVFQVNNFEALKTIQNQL
T3 sequence (P11215 150-328 limits assumed): as above
T2 sequence (P11215 150-328 limits assumed): as above
MMP-9 catalytic domain, sequence (P14780 107-444 limits assumed): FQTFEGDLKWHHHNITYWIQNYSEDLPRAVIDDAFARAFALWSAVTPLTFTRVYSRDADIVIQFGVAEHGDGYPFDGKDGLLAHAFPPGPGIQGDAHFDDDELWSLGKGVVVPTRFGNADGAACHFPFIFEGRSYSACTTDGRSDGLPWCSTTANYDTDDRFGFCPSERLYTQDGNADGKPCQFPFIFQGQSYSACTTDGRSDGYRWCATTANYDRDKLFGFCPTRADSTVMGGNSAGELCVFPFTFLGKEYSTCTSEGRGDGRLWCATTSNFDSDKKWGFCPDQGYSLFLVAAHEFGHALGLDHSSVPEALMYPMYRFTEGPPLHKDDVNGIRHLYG

Row | Molecule | inhibition of PMN adherence on proMMP-9 (PMNs [1]) | inhibition of proMMP-9 binding to the αM I domain (in words) (αM I domain) | inhibition of intraperitoneal accumulation of PMNs [5] | competition with αM I domain binding to proMMP-8 (proMMP-8 (Homo sapiens)) | competition with αM I domain binding to proMMP-9 (proMMP-9 (Homo sapiens)) | other results
1 | CTITHWGFTLC [CTT] | inhibited |  |  |  |  | inhibition of migration of PMA-stimulated PMNs (PMNs [2]): worked similarly; inhibition of PMN transendothelial migration (PMNs [3]): inhibition; inhibition of THP-1 migration (THP-1 cells [4]): inhibited; binding to the MMP-9 catalytic domain (MMP-9 catalytic domain): binds
2 | HFDDDE [HFDDDE] |  |  |  |  |  | IC50 (αM I domain; read-out: inhibition of proMMP-9 binding to the αM I domain, IC50): 20 µM
3 | ADGACILWMKKGWCGAAG [control peptide for DDGW] | no effect | without effect | no effect |  |  | 
4 | ADGACILWMDDGWCGAAG | inhibited | equally potent | inhibited | inhibitable | inhibitable | inhibition of migration of PMA-stimulated PMNs (PMNs [2]): worked similarly; inhibition of PMN transendothelial migration (PMNs [3]): inhibition; inhibition of THP-1 migration (THP-1 cells [4]): inhibited; activity on intraperitoneal PMN accumulation ([5]; 5 μg given per mouse, intravenous): active; prevention of thioglycolate-induced increase in gelatinase levels in intraperitoneal fluid (zymography) [5]: prevented the increase; effective dose ([5]; corresponding to 5 μg given per mouse): 0.1 mg/kg mouse tissue; inhibition of leukocyte primary adhesion to ICAM-1, fibrinogen or LLG-C4GST [6]: unable to inhibit; release of proMMP-9 from THP-1 cells (previous studies) (THP-1 cells [7]): can release proMMP-9
5 | fibrinogen |  |  |  | did not compete | did not compete | 
6 | DFEDHD | no effect | inactive | no effect |  |  | release of proMMP-9 from THP-1 cells (THP-1 cells [8]): did not induce; prevention of thioglycolate-induced increase in gelatinase levels in intraperitoneal fluid (zymography) [5]: not
7 | ICAM-1: intracellular adhesion molecule 1, β2 integrin ligand used as competitor (protein, UniProt P05362 28-532, looked up) Intercellular adhesion …: QTSVSPSKVILPRGGSVLVTCSTSCDQPKLLGIETPLPKKELLLPGNNRKVYELSNVQEDSQPMCYSNCPDGQSTAKTFLTVYWTPERVELAPLPSWQPVGKNLTLRCQVEGGAPRANLTVVLLRGEKELKREPAVGEPAEVTTTVLVRRDHHGANFSCRTELDLRPQGLELFENTSAPYQLQTFVLPATPPQLVSPRVLEVDTQGTVVCSLDGLFPVSEAQVHLALGDQRLNPTVTYGNDSFSAKASVSVTAEDEGTQRLTCAVILGNQSQETLQTVTIYSFPAPNVILTKPEVSEGTEVTVKCEAHPRAKVTLNGVPAQPLGPRAQLLLKATPEDNGRSFSCSATLEVAGQLIHKNQTRELRVLYGPRLDERDCPGNWTWPENSQQTPMCQAWGNPLPELKCLKDGTFPLPIGESVTVTRDLEGTYLCRARSTQGEVTRKVTVNVLSPRYEIVIITVVAAAVIMGTAGLSTYLYNRQRKIKKYRLQQAQKGTPMKPNTQATPP |  |  |  | did not compete | did not compete | 
